Patent US20230099204A1, “PHARMACEUTICAL COMPOSITION FOR PREVENTION OR TREATMENT OF CANCER IN WHICH KRAS MUTATION AND ACTIVATED RON ARE PRESENT” (WELLMARKER BIO CO., LTD., priority 2020, published 2023)
Structures can show the parent of a compound that is named as a salt.

Legend:
[1] = test system: SNUC2A; assay: MTS assay, cytotoxicity on colorectal cancer cell line SNUC2A; format: cell-based; conditions: RON mutation negative, KRAS G12D, 72 hours
Procedure: (§1) MTS assay was performed to compare cytotoxicity of the compounds of Example 1, Example 2, Example 3, Example 4, Example 5, Example 6, and positive control 1 on a colorectal cancer cell line, and a cell death rate of the colorectal cancer cell line was analyzed to compare anticancer activity of the compounds.
(§2) The MTS assay was performed by seeding each colorectal cell line in a 96-well plate at 1,000 cells per well, and after 24 hours, performing treatment with the compounds of Examples 1 to 6 and positive control 1 at various concentrations (0.000001 μM to 10 μM) in 100 μL of 10% FBS-RPMI medium (WELGENE Inc.) per well. The cells were incubated for 72 hours. Then, 20 μL of MTS solution (Promega) was added thereto, and the cells were incubated for 2 hours. Then, the absorbance was measured at 490 nm. The IC50 values for the compounds of Examples 1 to 6 and positive control 1 were calculated using GraphPad Prism™ 5 to investigate cytotoxicity.

[2] = test system: SW620; assay: MTS assay, cytotoxicity on colorectal cancer cell line SW620; format: cell-based; conditions: Homo sapiens, SW-620, RON Δ155, KRAS G12V, 72 hours
Procedure: as §1, §2

[3] = test system: T84; assay: MTS assay, cytotoxicity on colorectal cancer cell line T84; format: cell-based; conditions: Homo sapiens, RON Δ165, KRAS G13D, 72 hours
Procedure: as §1, §2

[4] = test system: HCT15; assay: MTS assay, cytotoxicity on colorectal cancer cell line HCT15; format: cell-based; conditions: Homo sapiens, HCT-15, RON Δ160, KRAS G13D, 72 hours
Procedure: as §1, §2

[5] = test system: HCT8; assay: MTS assay, cytotoxicity on colorectal cancer cell line HCT8; format: cell-based; conditions: Homo sapiens, HCT-8, RON wt, KRAS G13D, 72 hours
Procedure: as §1, §2

[6] = test system: SW480; assay: MTS assay, cytotoxicity on colorectal cancer cell line SW480; format: cell-based; conditions: Homo sapiens, RON Δ155, KRAS G12V, 72 hours
Procedure: as §1, §2

[7] = test system: DLD1; assay: MTS assay, cytotoxicity on colorectal cancer cell line DLD1; format: cell-based; conditions: Homo sapiens, DLD-1, RON wt, KRAS G13D, 72 hours
Procedure: as §1, §2

[8] = test system: colorectal cancer cell line; assay: MTS assay, summary over the colorectal cancer cell lines; format: cell-based; conditions: summary in words of Table 1
Procedure: as §1, §2

[9] = test system: T84; assay: Cell death induction, trypan blue cell counting, T84; format: cell-based; conditions: T84 with a RON mutation; 1 μM; 48 hours; FIG. 1
Procedure: (§3) Based on the results above, to identify the cell death-inducing ability of the compounds of Example 1 and positive control 1, which are representative materials, preparation was performed by seeding respective colorectal cancer cell lines SNU-[…], HCT8, T84, and SW620 onto 60-mm plates at 3×10^5 cells, and then incubation was performed for 24 hours. Thereafter, treatment with each of Example 1 and positive control 1 was performed at 1μM and incubation was performed for 48 hours. After 48 hours, the cells and cell suspensions were collected by treatment with trypsin, resuspended in 1× PBS and stained using a trypan blue solution (Sigma, cat# T8154). The stained cells were counted using a hemocytometer. Cell counting was repeated, and the mean and the standard deviation were calculated.

[10] = test system: SW620; assay: Cell death induction, trypan blue cell counting, SW620; format: cell-based, human; conditions: 1 μM, 48 hours; for cell death rate: SW620 (KRAS G12V/mRON Δ155), FIG. 2
Procedure: as §3, with “48 hours. In addition, preparation was performed by seeding the cell line SW620 onto a 60-mm plate at 3×10^5 cells, and then incubation was performed for 24 hours. Thereafter, treatment with each of Example 1, positive control 1, positive control 2, and positive control 3 was performed at 1 μM. After 48” for “48 hours. After 48”

[11] = test system: HCT8 (KRAS G13D/pTyr-wtRON(+)); assay: Cell line HCT8-transplanted mouse model; format: in vivo, BALB/c nude mice; conditions: 10 mg/kg, oral, once a day for 4 weeks
Procedure: 5-Week-old female BALB/c nude mice were purchased and acclimatized for 1 week. Then, human colorectal cancer patient-derived cell line SW620 (KRAS
G12V/mRON Δ155) at 5×10^6 cells/mouse was injected subcutaneously (100 μL) into the right dorsal side of the mice. The compound of Example 1 was orally administered when the tumor reached a size of about 100 mm^3. The drug was administered once a day for 4 weeks, and tumor size and mouse body weight were measured twice a week. After completion of the drug administration, the experimental animals were euthanized, and then the tumors were extracted and weighed for comparative analysis.
A portion of the extracted tumor tissue was fixed in 10% formalin and processed into a paraffin block. Then, the block was made into sections. Staining of the slide was performed through immunochemical staining. Another portion of the extracted tumor tissue was subjected to lysis, and then Western blotting was used to identify changes in expression of respective proteins.
The experiment was conducted in the same method as the procedure of Experimental Example 3, except that human colorectal cancer patient-derived cell line HCT8 (KRAS G13D/pTyr-wtRON(+)) was used in place of the human colorectal cancer patient-derived cell line SW620 (KRAS G12V/mRON Δ155), and the respective compounds of Example 1, positive control 1, and positive control 2 were administered.

Row | Compound | IC50 [1] [µM] | IC50 [2] [nM] | IC50 [3] [nM] | IC50 [4] [nM] | IC50 [5] [nM] | IC50 [6] [nM] | IC50 [7] [nM] | efficiency / response in MTS assay over the cell lines [8] | cell death induction efficacy [9] | cell death rate [10] | cell death induction efficacy ([10]; SW620 with a RON mutation, FIG. 1) | Tumor growth inhibition (TGI, %) [11] [%]
1 | CCOc1ccn(-c2ccccc2)c(=O)c1C(=O)Nc1ccc(Oc2ccnc3cc(-c4ccc(CNCCOC)cn4)sc23)c(F)c1 [Example 2, 4-ethoxy-N-(3-fluoro-4-{[2-(5-{[(2-methoxyethyl)amino]methyl}pyridine-2-yl)thieno[3,2-b]pyridine-7-yl]oxy}phenyl)-2-oxo-1-phenyl-1,2-dihydropyridine-3-carboxamide hydrochloride] | 4.44 | 370 | 210 | 220 | 260 | 1250 | 210 |  |  |  |  | 
2 | CCOc1ccn(-c2ccccc2)c(=O)c1C(=O)Nc1ccc(Oc2ccnc3cc(-c4ccc(CN5CCN(C)CC5)cn4)sc23)c(F)c1 [Example 3, 4-ethoxy-N-{3-fluoro-4-[(2-{5-[(4-methylpiperazin-1-yl)methyl]pyridin-2-yl}thieno[3,2-b]pyridin-7-yl)oxy]phenyl}-2-oxo-1-phenyl-1,2-dihydropyridine-3-carboxamide hydrochloride] | 4.6 | 260 | 220 | 390 | 480 | 660 | 300 |  |  |  |  | 
3 | Cn1cnc(-c2cc3nccc(Oc4ccc(NC(=O)c5c6c(cn(-c7ccc(F)cc7)c5=O)CCO6)cc4F)c3s2)c1 [Example 4] | 7.53 | > 10000 | 170 | 1270 | 1200 | 670 | 660 | high efficiency in the cell lines (HCT8 and DLD-1) |  |  |  | 
4 | COc1cc2c(Oc3ccc(NC(=O)c4c5c(cn(-c6ccc(F)cc6)c4=O)CCO5)cc3F)ccnc2cc1OCCN1CCOCC1 [Example 5, N-(3-fluoro-4-((6-methoxy-7-(2-morpholinoethoxy)quinolin-4-yl)oxy)phenyl)-5-(4-fluorophenyl)-6-oxo-2,3,5,6-tetrahydrofuro[3,2-c]pyridine-7-carboxamide] | 3.82 | 1000 | 810 | 390 | 780 | 110 | 230 |  |  |  |  | 
5 | COc1cc2c(Oc3ccc(NC(=O)c4c5c(cn(-c6ccc(F)cc6)c4=O)CCO5)cc3F)ccnc2cc1OCCCN1CC(C#N)C1 [Example 6, N-(4-((7-(3-(3-cyanoazetidine-1-yl)propoxy)-6-methoxyquinoline-4-yl)oxy)-3-fluorophenyl)-5-(4-fluorophenyl)-6-oxo-2,3,5,6-tetrahydrofuro[3,2-c]pyridine-7-carboxamide] | 1.32 | 110 | 200 | 140 | 330 | 320 | 170 |  |  |  |  | 
6 | CCOc1ccn(-c2ccc(F)cc2)c(=O)c1C(=O)Nc1ccc(Oc2ccnc(N)c2Cl)c(F)c1 [Positive control 1, N-{4-[(2-amino-3-chloro-4-pyridinyl)oxy]-3-fluorophenyl}-4-ethoxy-1-(4-fluorophenyl)-2-oxo-1,2-dihydro-3-pyridinecarboxamide, reference compound] | > 10 | 5000 | 8400 | 3240 | 7320 | 3540 | 4720 | high IC50 values in most cell lines | little response | cell death was not induced | little response | −7.5 ± 36.3
7 | C[C@@H](Oc1cc(-c2cnn(C3CCNCC3)c2)cnc1N)c1c(Cl)ccc(F)c1Cl [Positive control 2, reference compound] |  |  |  |  |  |  |  |  |  | cell death was not induced |  | 23.2 ± 7.8
8 | COc1cc2nccc(Oc3ccc(NC(=O)C4(C(=O)Nc5ccc(F)cc5)CC4)cc3)c2cc1OC [Positive control 3, N-(4-{[6,7-bis(methyloxy)quinoline-4-yl]oxy}phenyl)-N′-(4-fluorophenyl)cyclopropane-1,1-dicarboxamide] |  |  |  |  |  |  |  |  |  | cell death was not induced |  | 
